Experimental data as given in patent US12421211B2, “Heterocyclic compounds” (Hoffmann-La Roche Inc., priority 2021, dated 2025).
Where a name gives a salt, the structure may show the parent alone.

Tested on: Acinetobacter baumannii ATCC17961
Test: Antimicrobial susceptibility testing: 90% growth inhibitory concentration (IC90) determination
Assay type: cell-based
Details: Acinetobacter baumannii, ATCC17961, 16 h, 90% growth inhibitory concentration, Acinetobacter baumannii ATCC17961, Iso-Sensitest broth, OD 600 nm over 16 h; read-out: ATCC 17961 IC90
Outline: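 Growth inhibition derived in log phase from OD600 kinetics (every 20 minutes, 16h, 35±2° C) of ATCC17961 in Iso-Sensitest medium, inoculum ~5×10^5 CFU/ml. Compounds tested as twofold series, 10 points (e.g. 50 to 0.097 μM final); IC90 and IC50 reported.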

| IC90 [µM] | Structure (SMILES) |
| --- | --- |
| 0.041 | COCCn1ncc(-c2ccc(-c3cnc(C(=O)Nc4ccc(C(=O)N5CCN(C(=O)C[N+]6(C)CCC(N)C6)CC5)c(Cl)c4)n3C)c(F)c2F)c1C (stereo not shown) [Example C2, N-[4-[4-[2-(3-amino-1-methyl-pyrrolidin-1-ium-1-yl)acetyl]piperazine-1-carbonyl]-3-chloro-phenyl]-5-[2,3-difluoro-4-[1-(2-methoxyethyl)-5-methyl-pyrazol-4-yl]phenyl]-1-methyl-imidazole-2-carboxamide; formic acid; formate] |
| 0.1 | COCCn1cc(-c2ccc(-c3cnc(C(=O)Nc4ccc(C(=O)N5CCN(C(=O)C[N+]6(C)CCC(N)C6)CC5)c(Cl)c4)n3C)c(F)c2F)c(C)n1 (stereo not shown) [Example C3, N-[4-[4-[2-(3-amino-1-methyl-pyrrolidin-1-ium-1-yl)acetyl]piperazine-1-carbonyl]-3-chloro-phenyl]-5-[2,3-difluoro-4-[1-(2-methoxyethyl)-3-methyl-pyrazol-4-yl]phenyl]-1-methyl-imidazole-2-carboxamide; formic acid; formate] |
| 0.24 | COCCn1cc(-c2ccc(-c3cnc(C(=O)Nc4ccc(C(=O)N5CCN(C(=O)C[N+]6(C)C[C@H](OC)[C@@H](N)C6)CC5)c(Cl)c4)n3C)c(F)c2F)c(C)n1 (stereo partly drawn) [Example C5, N-[4-[4-[2-[(3S,4S)-3-amino-4-methoxy-1-methyl-pyrrolidin-1-ium-1-yl]acetyl]piperazine-1-carbonyl]-3-chloro-phenyl]-5-[2,3-difluoro-4-[1-(2-methoxyethyl)-3-methyl-pyrazol-4-yl]phenyl]-1-methyl-imidazole-2-carboxamide; formic acid; formate] |
| 0.14 | COCCn1cc(-c2ccc(-c3cnc(C(=O)Nc4ccc(C(=O)N5CCN(C(=O)C[N+]6(C)CCC(O)(CN)C6)CC5)c(Cl)c4)n3C)c(F)c2F)c(C)n1 (stereo not shown) [Example C6, N-[4-[4-[2-[3-(aminomethyl)-3-hydroxy-1-methyl-pyrrolidin-1-ium-1-yl]acetyl]piperazine-1-carbonyl]-3-chloro-phenyl]-5-[2,3-difluoro-4-[1-(2-methoxyethyl)-3-methyl-pyrazol-4-yl]phenyl]-1-methyl-imidazole-2-carboxamide; formic acid; formate] |
| 0.14 | COCCn1cc(-c2ccc(-c3cnc(C(=O)Nc4ccc(C(=O)N5CCN(C(=O)C[N+]6(C)CCC(C(N)=O)C6)CC5)c(Cl)c4)n3C)c(F)c2F)c(C)n1 (stereo not shown) [Example C7, N-[4-[4-[2-(3-carbamoyl-1-methyl-pyrrolidin-1-ium-1-yl)acetyl]piperazine-1-carbonyl]-3-chloro-phenyl]-5-[2,3-difluoro-4-[1-(2-methoxyethyl)-3-methyl-pyrazol-4-yl]phenyl]-1-methyl-imidazole-2-carboxamide; formate] |

Same assay, conditions: Acinetobacter baumannii, ATCC17961, 16 h, read-out: ATCC 17961 IC90

| Structure (SMILES) | IC90 [µM] |
| --- | --- |
| COCCn1cc(-c2ccc(-c3cnc(C(=O)Nc4ccc(C(=O)N5CCN(C(=O)C[N+]6(C)CC[C@@H](O)C6)CC5)c(Cl)c4)n3C)c(F)c2F)c(C)n1 (stereo partly drawn) [Example C8, N-[3-chloro-4-[4-[2-[(3R)-3-hydroxy-1-methyl-pyrrolidin-1-ium-1-yl]acetyl]piperazine-1-carbonyl]phenyl]-5-[2,3-difluoro-4-[1-(2-methoxyethyl)-3-methyl-pyrazol-4-yl]phenyl]-1-methyl-imidazole-2-carboxamide; formate] | 0.21 |
| COCCn1cc(-c2ccc(-c3cnc(C(=O)Nc4ccc(C(=O)N5CCN(C(=O)C[N+]6(C)CC[C@H](O)C6)CC5)c(Cl)c4)n3C)c(F)c2F)c(C)n1 (stereo partly drawn) [Example C9, N-[3-chloro-4-[4-[2-[(3S)-3-hydroxy-1-methyl-pyrrolidin-1-ium-1-yl]acetyl]piperazine-1-carbonyl]phenyl]-5-[2,3-difluoro-4-[1-(2-methoxyethyl)-3-methyl-pyrazol-4-yl]phenyl]-1-methyl-imidazole-2-carboxamide; formate] | 0.26 |
